Data published in patent US10287297B2, “Epoxyazulene derivatives useful for treating cancer and diabetes” (The United States of America, as represented by the …, priority 2015, dated 2019).

What was measured:
Format in all cases: cell-based
[1] = test system: IGROV1; experiment: NCI 60 cell assay, ovarian IGROV1; conditions: Homo sapiens, IGROV-1, 48 h, drug exposure two days, SRB endpoint, read-out: GI-50 value
Procedure: (§1) Samples were tested in the standard National Cancer Institute 60-cell line protocol. First, they were tested against all 60 cell lines in a single final concentration of 10 micromolar. Then, they were separately tested in five 10-fold dilutions. The drug exposure was two days, with an SRB endpoint.

[2] = test system: HOP-92; experiment: NCI 60 cell assay, NSCLC HOP-92; conditions: Homo sapiens, 48 h; HOP-92 (NSCLC); drug exposure two days, SRB endpoint; read-out: GI-50 value
Procedure: as §1

[3] = test system: HT29; experiment: NCI 60 cell assay, colon HT29; conditions: Homo sapiens, HT-29, 48 h, drug exposure two days, SRB endpoint, read-out: GI-50 value
Procedure: as §1

[4] = test system: OVCAR-4; experiment: NCI 60 cell assay, ovarian OVCAR-4; conditions: Homo sapiens, 48 h; OVCAR-4 (ovarian); drug exposure two days, SRB endpoint; read-out: GI-50 value
Procedure: as §1

[5] = test system: NCI-H322M; experiment: NCI 60 cell assay, NSCLC NCI-H322M; conditions: Homo sapiens, 48 h, drug exposure two days, SRB endpoint, read-out: GI-50 value
Procedure: as §1

[6] = test system: COLO 205; experiment: NCI 60 cell assay, colon COLO 205; conditions: Homo sapiens, 48 h; COLO 205 (colon); drug exposure two days, SRB endpoint; read-out: GI-50 value
Procedure: as §1

[7] = test system: MDA-MB-468; experiment: NCI 60 cell assay, breast MDA-MB-468; conditions: Homo sapiens, 48 h; MDA-MB-468 (breast); drug exposure two days, SRB endpoint; read-out: GI-50 value
Procedure: as §1

[8] = test system: SR; experiment: NCI 60 cell assay, leukemia SR; conditions: Homo sapiens, 48 h, drug exposure two days, SRB endpoint, read-out: GI-50 value
Procedure: as §1

[9] = test system: SK-OV-3; experiment: NCI 60 cell assay, ovarian SK-OV-3; conditions: Homo sapiens, 48 h; SK-OV-3 (ovarian); drug exposure two days, SRB endpoint; read-out: GI-50 value
Procedure: as §1

[10] = test system: MDA-MB-435; experiment: NCI 60 cell assay, melanoma MDA-MB-435; conditions: Homo sapiens, 48 h; MDA-MB-435 (melanoma); drug exposure two days, SRB endpoint; read-out: GI-50 value
Procedure: as §1

[11] = test system: ACHN; experiment: NCI 60 cell assay, renal ACHN; conditions: Homo sapiens, 48 h, drug exposure two days, SRB endpoint, read-out: GI-50 value
Procedure: as §1

[12] = test system: HCT-116; experiment: NCI 60 cell assay, colon HCT-116; conditions: Homo sapiens, 48 h; HCT-116 (colon); drug exposure two days, SRB endpoint; read-out: GI-50 value
Procedure: as §1

[13] = test system: BT-549; experiment: NCI 60 cell assay, breast BT-549; conditions: Homo sapiens, 48 h; BT-549 (breast); drug exposure two days, SRB endpoint; read-out: GI-50 value
Procedure: as §1

[14] = test system: MCF7; experiment: NCI 60 cell assay, breast MCF7; conditions: Homo sapiens, 48 h, drug exposure two days, SRB endpoint, read-out: GI-50 value
Procedure: as §1

[15] = test system: MDA-MB-231/ATCC; experiment: NCI 60 cell assay, breast MDA-MB-231/ATCC; conditions: Homo sapiens, 48 h; MDA-MB-231/ATCC (breast); drug exposure two days, SRB endpoint; read-out: GI-50 value
Procedure: as §1

[16] = test system: HCT-15; experiment: NCI 60 cell assay, colon HCT-15; conditions: Homo sapiens, 48 h; HCT-15 (colon); drug exposure two days, SRB endpoint; read-out: GI-50 value
Procedure: as §1

[17] = test system: HOP-62; experiment: NCI 60 cell assay, NSCLC HOP-62; conditions: Homo sapiens, 48 h; HOP-62 (NSCLC); drug exposure two days, SRB endpoint; read-out: GI-50 value
Procedure: as §1

[18] = test system: SN12C; experiment: NCI 60 cell assay, renal SN12C; conditions: Homo sapiens, 48 h, drug exposure two days, SRB endpoint, read-out: GI-50 value
Procedure: as §1

[19] = test system: LOX IMVI; experiment: NCI 60 cell assay, melanoma LOX IMVI; conditions: Homo sapiens, 48 h, drug exposure two days, SRB endpoint, read-out: GI-50 value
Procedure: as §1

[20] = test system: HL-60(TB); experiment: NCI 60 cell assay, leukemia HL-60(TB); conditions: Homo sapiens, 48 h; HL-60(TB) (leukemia); drug exposure two days, SRB endpoint; read-out: GI-50 value
Procedure: as §1

[21] = test system: UO-31; experiment: NCI 60 cell assay, renal UO-31; conditions: Homo sapiens, 48 h; UO-31 (renal); drug exposure two days, SRB endpoint; read-out: GI-50 value
Procedure: as §1

[22] = test system: NCI/ADR-RES; experiment: NCI 60 cell assay, ovarian NCI/ADR-RES; conditions: Homo sapiens, 48 h, drug exposure two days, SRB endpoint, read-out: GI-50 value
Procedure: as §1

[23] = test system: OVCAR-3; experiment: NCI 60 cell assay, ovarian OVCAR-3; conditions: Homo sapiens, 48 h; OVCAR-3 (ovarian); drug exposure two days, SRB endpoint; read-out: GI-50 value
Procedure: as §1

[24] = test system: U251; experiment: NCI 60 cell assay, CNS U251; conditions: Homo sapiens, U-251, 48 h, drug exposure two days, SRB endpoint, read-out: GI-50 value
Procedure: as §1

[25] = test system: A549/ATCC; experiment: NCI 60 cell assay, NSCLC A549/ATCC; conditions: Homo sapiens, 48 h, drug exposure two days, SRB endpoint, read-out: GI-50 value
Procedure: as §1

[26] = test system: SK-MEL-5; experiment: NCI 60 cell assay, melanoma SK-MEL-5; conditions: Homo sapiens, 48 h; SK-MEL-5 (melanoma); drug exposure two days, SRB endpoint; read-out: GI-50 value
Procedure: as §1

[27] = test system: SF-268; experiment: NCI 60 cell assay, CNS SF-268; conditions: Homo sapiens, 48 h; SF-268 (CNS); drug exposure two days, SRB endpoint; read-out: GI-50 value
Procedure: as §1

[28] = test system: NCI-H226; experiment: NCI 60 cell assay, NSCLC NCI-H226; conditions: Homo sapiens, 48 h, drug exposure two days, SRB endpoint, read-out: GI-50 value
Procedure: as §1

Compound: CC1=C2[C@@H](CC1)[C@]1(C)O[C@@](C(C)C)(C[C@H]1OC(=O)[C@H](C)O)[C@H]2OC(=O)C=Cc1ccccc1 [(Il), (3aR,4S,5R,7R,8S)-5-(((S)-2-hydroxypropanoyl)oxy)-7-isopropyl-1,4-dimethyl-2,3,3a,4,5,6,7,8-octahydro-4,7-epoxyazulen-8-yl cinnamate]
- GI50 [1]: 19 µM
- GI50 [2]: 6 µM
- GI50 [3]: 14 µM
- GI50 [4]: 12 µM
- GI50 [5]: 19 µM
- GI50 [6]: 17 µM
- GI50 [7]: 11 µM
- GI50 [8]: 13 µM
- GI50 [9]: 15 µM
- GI50 [10]: 15 µM
- GI50 [11]: 0.09 µM
- GI50 [12]: 12 µM
- GI50 [13]: 1.4 µM
- GI50 [14]: 10 µM
- GI50 [15]: 15 µM
- GI50 [16]: 12 µM
- GI50 [17]: 15 µM
- GI50 [18]: 0.21 µM
- GI50 [19]: 15 µM
- GI50 [20]: 11 µM
- GI50 [21]: 0.71 µM
- GI50 [22]: 0.42 µM
- GI50 [23]: 13 µM
- GI50 [24]: 14 µM
- GI50 [25]: 13 µM
- GI50 [26]: 13 µM
- GI50 [27]: 1.3 µM
- GI50 [28]: 11 µM

Compound: CC(=O)O[C@@H]1C[C@]2(C(C)C)O[C@@]1(C)[C@@H]1CCC(C)=C1[C@@H]2OC(=O)C=Cc1ccccc1 [(Im), (3aR,4S,5R,7R,8S)-5-acetoxy-7-isopropyl-1,4-dimethyl-2,3,3a,4,5,6,7,8-octahydro-4,7-epoxyazulen-8-yl cinnamate]
- GI50 [1]: 100 µM
- GI50 [3]: 31 µM
- GI50 [4]: 11 µM
- GI50 [5]: 100 µM
- GI50 [6]: 32 µM
- GI50 [7]: 24 µM
- GI50 [8]: 32 µM
- GI50 [9]: 71 µM
- GI50 [10]: 39 µM
- GI50 [11]: 4.5 µM
- GI50 [12]: 16 µM
- GI50 [13]: 51 µM
- GI50 [14]: 19 µM
- GI50 [15]: 49 µM
- GI50 [16]: 32 µM
- GI50 [17]: 89 µM
- GI50 [18]: 10 µM
- GI50 [19]: 30 µM
- GI50 [20]: 25 µM
- GI50 [21]: 20 µM
- GI50 [22]: 23 µM
- GI50 [23]: 22 µM
- GI50 [24]: 48 µM
- GI50 [25]: 47 µM
- GI50 [26]: 22 µM
- GI50 [27]: 35 µM
- GI50 [28]: 29 µM

Compound: CC1=C2[C@@H](CC1)[C@]1(C)O[C@@](C3CCCCC3)(C[C@H]1OC(=O)CO)[C@H]2OC(=O)C=Cc1ccccc1 [(Iq), (3aR,4S,5R,7R,8S)-7-cyclohexyl-5-(2-hydroxyacetoxy)-1,4-dimethyl-2,3,3a,4,5,6,7,8-octahydro-4,7-epoxyazulen-8-yl cinnamate]
- GI50 [1]: 19 µM
- GI50 [2]: 6 µM
- GI50 [3]: 12 µM
- GI50 [4]: 15 µM
- GI50 [5]: 17 µM
- GI50 [6]: 15 µM
- GI50 [7]: 12 µM
- GI50 [8]: 9 µM
- GI50 [9]: 13 µM
- GI50 [10]: 15 µM
- GI50 [11]: 0.035 µM
- GI50 [12]: 9 µM
- GI50 [13]: 0.5 µM
- GI50 [14]: 4.5 µM
- GI50 [15]: 18 µM
- GI50 [16]: 10 µM
- GI50 [17]: 14 µM
- GI50 [18]: 0.06 µM
- GI50 [19]: 14 µM
- GI50 [20]: 15 µM
- GI50 [21]: 0.46 µM
- GI50 [22]: 0.25 µM
- GI50 [23]: 13 µM
- GI50 [24]: 13 µM
- GI50 [25]: 11 µM
- GI50 [26]: 14 µM
- GI50 [27]: 0.7 µM
- GI50 [28]: 12 µM

Compound: CC1=C2[C@@H](CC1)[C@]1(C)O[C@@](c3ccccc3)(C[C@H]1OC(=O)CO)[C@H]2OC(=O)C=Cc1ccccc1 [(Ir), (3aR,4S,5R,7R,8S)-5-(2-hydroxyacetoxy)-1,4-dimethyl-7-phenyl-2,3,3a,4,5,6,7,8-octahydro-4,7-epoxyazulen-8-yl cinnamate]
- GI50 [1]: 24 µM
- GI50 [2]: 14 µM
- GI50 [3]: 16 µM
- GI50 [4]: 15 µM
- GI50 [5]: 22 µM
- GI50 [6]: 15 µM
- GI50 [7]: 15 µM
- GI50 [8]: 11 µM
- GI50 [9]: 19 µM
- GI50 [10]: 17 µM
- GI50 [11]: 0.035 µM
- GI50 [12]: 15 µM
- GI50 [13]: 0.71 µM
- GI50 [14]: 10 µM
- GI50 [15]: 19 µM
- GI50 [16]: 13 µM
- GI50 [17]: 18 µM
- GI50 [18]: 11 µM
- GI50 [19]: 17 µM
- GI50 [20]: 16 µM
- GI50 [21]: 0.55 µM
- GI50 [22]: 0.34 µM
- GI50 [23]: 15 µM
- GI50 [24]: 13 µM
- GI50 [25]: 15 µM
- GI50 [26]: 15 µM
- GI50 [27]: 1.4 µM
- GI50 [28]: 16 µM

Compound: CC1=C2[C@@H](CC1)[C@]1(C)O[C@@](C(C)C)(C[C@H]1OC(=O)CO)[C@H]2OC(=O)/C=C/c1ccccc1 [Compound (Ih)]
- GI50 [1]: 46 µM
- GI50 [2]: 100 µM
- GI50 [3]: 39 µM
- GI50 [4]: 35 µM
- GI50 [5]: 43 µM
- GI50 [6]: 44 µM
- GI50 [7]: 33 µM
- GI50 [8]: 32 µM
- GI50 [9]: 44 µM
- GI50 [10]: 43 µM
- GI50 [11]: 0.022 µM
- GI50 [12]: 33 µM
- GI50 [13]: 0.14 µM
- GI50 [14]: 32 µM
- GI50 [15]: 39 µM
- GI50 [16]: 32 µM
- GI50 [17]: 36 µM
- GI50 [18]: 20 µM
- GI50 [19]: 42 µM
- GI50 [20]: 35 µM
- GI50 [21]: 0.04 µM
- GI50 [22]: 0.13 µM
- GI50 [23]: 39 µM
- GI50 [24]: 35 µM
- GI50 [25]: 33 µM
- GI50 [26]: 35 µM
- GI50 [27]: 2.6 µM
- GI50 [28]: 35 µM
